The subject of this assay is primary human osteoclast precursors. Nature of the assay: In vitro bone resorption assay in OSTEOASSAY plate (CTx collagen resorption product in supernatant, EIA). It counts as cell-based. The settings on record: supernatants assayed after an additional 2 days, M-CSF and soluble RANK ligand. As to the method:
OSTEOASSAY™ plates, which contain adherent particles (≦0.125 mm dimension) of native human bone, were seeded with 10,000 primary human osteoclast precursors (“Poietics™ Osteoclast Precursors,” product no. 2T-110, Cambrex Corporation) per well in medium containing M-CSF+/−soluble RANK ligand and cultured at 37° C. for 5-7 days. Culture media were changed on day 5, 6 or 7 and the cultures were continued for another 1 to 3 days.
The release into the culture supernatants of collagen type I peptides from the bone particles was measured quantitatively by enzyme immunoassay (EIA). Three different commercially available assay kits for the measurement of resorption-specific collagen resorption fragments were evaluated: the METRA™ Helical Peptide EIA kit (Quidel), the Serum CROSSLAPS® ELISA (Nordic Bioscience) kit, and the OSTEOMARK® NTx (Ostex) kit. In some experiments, the OSTEOASSAY™ plate was compared to dentin discs (ALPCO Diagnostics). In other assays, primary human osteoclast precursors were exposed to inhibitors of osteoclast function (alendronate or calcitonin) for 48-72 hours and then assayed for bone resorptive activity.
Primary human osteoclast precursors were seeded at 10,000 cells/well and cultured in medium containing M-CSF and soluble RANK ligand. After 5 days of culture, the medium was renewed +/−1 nM calcitonin or +/−various concentrations of alendronate. […]

A word on the IC50: it is the concentration needed to halve the response being measured. On to `NCCCC(O)(P(=O)(O)O)P(=O)(O)O` [alendronate], for which, for the setting “Homo sapiens, Osteoclast, various concentrations added after 5 days of culture, FIG. 4, read-out: IC50 for inhibition of bone resorption (CTx collagen resorption product)”, the IC50 was approximately 1000 nM.
Consider calcitonin, for which the “inhibition of in vitro bone resorption (CTx collagen resorption product)” value (1 nM calcitonin added after 5 days of culture, FIG. 3) was “effectively inhibits in vitro bone resorption”.

(Values after patent US20080176264A1, “Osteoclast Culture Vessels and Methods of Use” (priority 2004, published 2008).)
